From patent US11667638B2, “4-substitued cytisine analogues” (The University of Bristol, priority 2016, dated 2023)

Columns and labels:
α3β4 nAChRs = α3β4 nAChRs (Homo sapiens (Human), UniProt P30926+P32297); experiment: Maximal gating efficacy on α3β4 nAChRs in Xenopus oocytes, two electrode voltage clamp; assay type: cell-based; conditions: maximal current relative to 1 mM ACh
Experimental: (§1) Compounds of the invention were tested for effects on the function of human α4β2, α3β4 and α7 nicotinic acetylcholine receptors (nAChRs) expressed heterologously in Xenopus oocytes. […] Expression in oocytes was obtained as follows: pCI (Promega, UK) plasmid containing human α4, β2, β4 or α7 complementary DNA were injected as previously described (Moroni et al., 2006). To express (α4)3(β2)2 nACh receptors, a mixture of 10α4:1β2 cDNAs was injected into the nucleus of oocytes, whereas for (α4)2(β2)3 receptors the cDNA ratio injected was 1α4:10β2.
(§2) Functional studies: Recordings were performed manually using a Geneclamp amplifier (Molecular Devices, USA) or using an automated HiClamp system. In both cases the oocytes were impaled with two electrodes filled with 3 M KCl and the cells were held at −60 mV throughout the experiments.
(§3) Oocyte isolation and two-electrode voltage-clamp recordings on oocytes were carried out as previously described (Moroni et al., 2006; Carbone et al., 2009). […] A minimum interval of 5 min was allowed between agonist applications to ensure reproducible recordings. Oocytes were exposed to increasing concentrations of the compounds until no further increases in the response amplitude were obtained. This concentration was taken as the concentration that causes maximal responses on the receptors tested. The data summarised in Tables 1-4 were obtained from at least 5 experiments carried out on oocytes obtained from at least three different donors.
Maximal gating efficacy of the compounds on α3β4 nAChRs: The concentration of the compounds causing maximal activation of α3β4 nAChRs expressed heterologously in Xenopus oocytes was determined using two electrode voltage clamping.

Rat α7 = Rat α7 (Rattus norvegicus (Rat), UniProt Q05941); assay type: binding; conditions: range printed after the value
Experimental: (§4) The ligand binding data were analyzed by means of nonlinear regression using Prism version 5 (GraphPad Software, Inc., La Jolla, Calif.). The Ki values were calculated from the experimental IC50 values using the Cheng-Prusoff equation for a single population of competitive sites: Ki=IC50/[1+(L/Kd)], where L is the concentration of radioligand used in each experiment and the Kd values were determined by saturation binding experiment. All of the assays were performed in duplicate and repeated at least two-three times.

Human α7 = Human α7 (Homo sapiens (Human), UniProt P36544); assay type: binding; conditions: read-out: Human α7 K(i)
(α4)3(β2)2 nAChRs = (α4)3(β2)2 nAChRs (Homo sapiens (Human), UniProt P17787+P43681); experiment: Maximal gating efficacy on (α4)3(β2)2 nAChRs in Xenopus oocytes, two electrode voltage clamp; assay type: cell-based; conditions: (α4)3(β2)2, low sensitivity stoichiometry; maximal current relative to 1 mM ACh
Experimental: as §1, §2, §3
Maximal gating efficacy of the compounds: The concentration of the compounds of the invention causing maximal activation of the (α4)3(β2)2 nAChRs expressed heterologously in Xenopus oocytes was determined using two electrode voltage clamping.

α4β2 nAChR = α4β2 nAChR (Homo sapiens (Human), UniProt P17787+P43681); assay type: binding
Experimental: (§5) HEK 293 cells were grown in Dulbecco's modified Eagle medium supplemented with 10% fetal bovine serum, 1% L-Glutamine, 100 units/ml penicillin G, and 100 μg/streptomycin in a humidified atmosphere containing 10% CO2. The cDNAs encoding α3 and β4 or α4 and β2 (were transfected into the HEK 293 cells at 30% confluency). The cell transfections were carried out in 100 mm Petri dishes using 30 μL of JetPEI™ (Polypus, France) (1 mg/ml, pH 7.2) and 3 μg of each cDNA. After 24 h transfection, the cells were collected, washed with PBS by centrifugation, and used for binding analysis.
(§6) [^3H]-epibatidine saturation binding experiments to HEK transfected α3β4 or α4β2 receptors were performed by means of overnight incubation at 4° C. at concentrations ranging from 0.005 to 1 nM in a buffer containing 50 mM Tris-HCl, pH 7, 150 mM NaCl, 5 mM KCl, 1 mM MgCl2, 2.5 mM CaCl2 and 2 mg/ml BSA, in the presence (aspecific binding) or absence (total binding) of 100 nM cold epibatidine. Specific ligand binding was defined as total binding minus the binding in the presence of 100 nM cold epibatidine.
(§7) After incubation, the membranes of HEK cells transfected with α4β2* or α3β4 subtypes were washed by filtration on GFC filters with ice-cold PBS. The GFC filters were pre-soaked in polyethylenimine and filtered through an harvester apparatus. [^3H]-epibatidine binding was determined by means of liquid scintillation counting in a beta counter.
as §4

α3β4 nAChR = α3β4 nAChR (Homo sapiens (Human), UniProt P30926+P32297); assay type: binding; conditions: human α3β4 in HEK 293, 0.5 nM [3H]-epibatidine; range printed after the value
Experimental: as §5, §6, §7, §4

(α4)2(β2)3 nAChRs = (α4)2(β2)3 nAChRs (Homo sapiens (Human), UniProt P17787+P43681); experiment: Maximal gating efficacy on (α4)2(β2)3 nAChRs in Xenopus oocytes, two electrode voltage clamp; assay type: cell-based; conditions: (α4)2(β2)3, high sensitivity receptors; maximal current relative to 1 mM ACh
Experimental: as §1, §2, §3
Maximal gating efficacy of compounds on (α4)2(β2)3 receptors (high sensitivity receptors): The concentration of the compounds causing maximal activation of the (α4)2(β2)3 nAChRs expressed heterologously in Xenopus oocytes was determined using two electrode voltage clamping.

Chain of α4β2 nAChR (P43681 29-627 limits assumed): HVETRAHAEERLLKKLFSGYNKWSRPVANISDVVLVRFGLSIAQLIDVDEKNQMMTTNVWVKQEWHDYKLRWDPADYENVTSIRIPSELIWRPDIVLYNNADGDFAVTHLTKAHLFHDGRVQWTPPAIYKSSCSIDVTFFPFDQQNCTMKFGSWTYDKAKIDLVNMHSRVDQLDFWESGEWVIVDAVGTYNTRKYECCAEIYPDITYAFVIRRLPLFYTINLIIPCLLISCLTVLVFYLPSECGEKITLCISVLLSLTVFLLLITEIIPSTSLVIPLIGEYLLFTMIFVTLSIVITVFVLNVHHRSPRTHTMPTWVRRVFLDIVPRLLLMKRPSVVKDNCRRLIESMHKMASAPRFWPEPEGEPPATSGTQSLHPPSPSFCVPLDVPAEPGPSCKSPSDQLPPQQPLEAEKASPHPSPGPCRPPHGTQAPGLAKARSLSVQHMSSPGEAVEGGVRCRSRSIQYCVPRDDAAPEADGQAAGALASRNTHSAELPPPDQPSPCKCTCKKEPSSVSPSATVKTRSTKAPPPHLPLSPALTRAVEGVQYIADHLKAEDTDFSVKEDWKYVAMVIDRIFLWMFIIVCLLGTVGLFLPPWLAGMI
Chain of α4β2 nAChR (P17787 26-502 limits assumed): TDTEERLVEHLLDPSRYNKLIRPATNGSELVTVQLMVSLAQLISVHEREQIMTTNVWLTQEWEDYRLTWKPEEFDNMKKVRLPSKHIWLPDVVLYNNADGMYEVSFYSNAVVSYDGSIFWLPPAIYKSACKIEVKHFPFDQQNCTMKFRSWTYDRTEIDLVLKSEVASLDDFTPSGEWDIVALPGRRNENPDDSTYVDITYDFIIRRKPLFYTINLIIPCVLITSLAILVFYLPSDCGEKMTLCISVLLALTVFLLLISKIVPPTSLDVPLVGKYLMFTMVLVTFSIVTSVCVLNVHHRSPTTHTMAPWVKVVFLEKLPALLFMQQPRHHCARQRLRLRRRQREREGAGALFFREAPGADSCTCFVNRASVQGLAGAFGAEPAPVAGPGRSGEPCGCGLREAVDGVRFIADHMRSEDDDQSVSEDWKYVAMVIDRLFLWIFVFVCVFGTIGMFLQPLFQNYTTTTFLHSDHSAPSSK
Chain of Rat α7 (Q05941 23-502 limits assumed): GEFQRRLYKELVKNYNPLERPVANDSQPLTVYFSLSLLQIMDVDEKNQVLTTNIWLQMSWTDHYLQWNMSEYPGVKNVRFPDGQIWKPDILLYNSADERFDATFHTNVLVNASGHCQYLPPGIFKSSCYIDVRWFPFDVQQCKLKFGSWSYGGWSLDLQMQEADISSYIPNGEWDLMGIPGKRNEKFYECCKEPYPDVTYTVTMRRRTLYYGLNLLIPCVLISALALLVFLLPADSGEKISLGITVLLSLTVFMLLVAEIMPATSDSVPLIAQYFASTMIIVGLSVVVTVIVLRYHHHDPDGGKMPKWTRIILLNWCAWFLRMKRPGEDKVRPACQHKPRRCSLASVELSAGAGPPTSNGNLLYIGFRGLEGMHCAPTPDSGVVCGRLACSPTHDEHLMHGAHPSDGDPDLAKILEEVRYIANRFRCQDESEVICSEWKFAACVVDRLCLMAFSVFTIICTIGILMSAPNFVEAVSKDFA
Chain of Human α7 (P36544 23-502 limits assumed): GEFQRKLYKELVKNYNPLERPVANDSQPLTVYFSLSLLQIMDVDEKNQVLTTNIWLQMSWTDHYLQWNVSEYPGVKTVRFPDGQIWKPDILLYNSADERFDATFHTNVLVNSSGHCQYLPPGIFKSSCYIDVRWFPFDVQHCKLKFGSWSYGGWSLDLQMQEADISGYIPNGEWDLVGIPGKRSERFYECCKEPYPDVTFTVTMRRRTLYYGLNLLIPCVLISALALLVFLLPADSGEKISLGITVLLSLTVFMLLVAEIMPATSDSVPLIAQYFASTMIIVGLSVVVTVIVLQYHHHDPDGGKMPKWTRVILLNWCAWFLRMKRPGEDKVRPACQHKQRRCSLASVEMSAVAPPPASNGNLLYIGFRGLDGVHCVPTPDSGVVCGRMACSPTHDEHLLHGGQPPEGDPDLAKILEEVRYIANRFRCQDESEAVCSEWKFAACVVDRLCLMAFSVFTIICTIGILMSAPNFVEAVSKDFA
Chain of (α4)3(β2)2 nAChRs (P43681 29-627): as the sequence (P43681 29-627 limits assumed) above
Chain of (α4)3(β2)2 nAChRs (P17787 26-502): as the sequence (P17787 26-502 limits assumed) above
Chain of (α4)2(β2)3 nAChRs (P43681 29-627): as the sequence (P43681 29-627 limits assumed) above
Chain of (α4)2(β2)3 nAChRs (P17787 26-502): as the sequence (P17787 26-502 limits assumed) above
Chain of α3β4 nAChRs (P32297 32-505): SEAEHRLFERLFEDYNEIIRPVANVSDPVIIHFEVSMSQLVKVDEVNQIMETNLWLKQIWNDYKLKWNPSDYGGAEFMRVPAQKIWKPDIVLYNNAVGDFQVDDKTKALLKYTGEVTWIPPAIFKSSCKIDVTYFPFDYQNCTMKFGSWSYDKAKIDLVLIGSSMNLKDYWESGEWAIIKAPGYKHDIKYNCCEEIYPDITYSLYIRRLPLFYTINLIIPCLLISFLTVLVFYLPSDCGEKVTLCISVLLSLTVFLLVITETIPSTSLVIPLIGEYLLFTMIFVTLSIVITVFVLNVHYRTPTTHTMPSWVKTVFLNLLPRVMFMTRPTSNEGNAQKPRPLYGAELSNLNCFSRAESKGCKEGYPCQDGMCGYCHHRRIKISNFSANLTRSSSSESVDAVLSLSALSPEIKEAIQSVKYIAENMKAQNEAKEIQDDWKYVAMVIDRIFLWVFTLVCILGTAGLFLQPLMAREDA
Chain of α3β4 nAChRs (P30926 22-498): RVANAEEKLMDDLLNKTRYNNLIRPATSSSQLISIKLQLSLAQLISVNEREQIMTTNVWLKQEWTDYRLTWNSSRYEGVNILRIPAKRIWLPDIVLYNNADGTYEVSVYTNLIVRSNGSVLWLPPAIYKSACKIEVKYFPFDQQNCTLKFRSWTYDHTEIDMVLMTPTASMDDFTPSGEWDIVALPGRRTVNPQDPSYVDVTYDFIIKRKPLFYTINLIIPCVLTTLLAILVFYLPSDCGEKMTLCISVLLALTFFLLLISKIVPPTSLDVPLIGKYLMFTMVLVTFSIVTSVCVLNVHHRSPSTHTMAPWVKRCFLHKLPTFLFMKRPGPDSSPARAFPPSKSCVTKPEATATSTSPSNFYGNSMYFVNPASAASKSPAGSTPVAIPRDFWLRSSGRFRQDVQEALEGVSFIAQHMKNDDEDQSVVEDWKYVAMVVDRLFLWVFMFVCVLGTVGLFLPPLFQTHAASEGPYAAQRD
Chain of α3β4 nAChR (P32297 32-505 limits assumed): as the sequence (P32297 32-505) above
Chain of α3β4 nAChR (P30926 22-498 limits assumed): as the sequence (P30926 22-498) above

Compound: O=c1cccc2n1C[C@@H]1CNC[C@H]2C1 [Cytisine, cytisine]
- Relative efficacy (ACh) (α3β4 nAChRs): 0.54 ± 0.01
- Ki (Rat α7): 662 nM
- Ki (Human α7): 691 nM
- Relative efficacy (ACh) ((α4)3(β2)2 nAChRs): 0.19 ± 0.07
- Ki (α4β2 nAChR; human α4β2 in HEK 293, 0.25 nM [3H]-epibatidine, range printed after the value): 1.27 nM
- Ratio α3β4/α4β2 (α4β2 nAChR; ratio of Ki values): 81.1
- Ki (α3β4 nAChR): 103 nM
- Relative efficacy (ACh) ((α4)2(β2)3 nAChRs): 0.02 ± 0.001
